Where two headings read alike, the source gives them in different places.
Experiments:
[1] = tested on: MRC5 fibroblast cells; test: Cel Titer Glo cytotoxicity in MRC5 cells; format: cell-based; settings: for IC50: Homo sapiens
Method: In order to facilitate development of the TPP containing antibiotics, a series of TPP linkers were prepared and tested for their toxicity in MRC5 cells. This library of linkers are shown below: The toxicity of these linkers in MRC5 cells after a 72 hour incubation.

[2] = tested on: Escherichia coli (BL21(DE3)); test: Resazurin blue (alamarBlue) bacterial cell viability assay, gram-negative model; format: cell-based; settings: E Coli BL21 (DE3)
Method: (§1) To compare the efficacy of pleuromutilin and the pleuromulin-TPP^+ ester pro-drug (AP-8-159B) gram-negative and gram-positive pathogen model system were used. Thus, Escherichia coli (BL21(DE3) from New England Biolabs) was used as a model strain for gram-negative bacteria and clinical isolates of Staphylococcus aureus were used as the model system for gram-positive bacteria (NR-49120, NR-46413 obtained from BEI Resources). All strains were cultured at 37° C. overnight in Luria Bertani (LB) (BD 244610). For testing the drug sensitivity, bacteria were grown in RPMI medium containing 10% fetal bovine serum or human serum.
A resazurin blue assay (alamarBlue®) (Toté et al., 2009; Costa et al., 2021; Wannigama et al., 2019; Travnickova et al., 2019) was used to evaluate bacterial cell viability. Resazurin (7-hydroxy-10-oxidophenoxazin-10-ium-3-one, sodium) is a blue fluorogenic dye used as a redox indicator in cell viability and proliferation assays for bacteria, yeast, or mammalian cells. The resazurin assay protocol is based on the reduction of oxidized non-fluorescent blue resazurin to a red fluorescent dye (resorufin), where NADPH dehydrogenase, without being bound by theory, is probably responsible for the transference of electrons from NADPH+H^+ to resazurin (Costa et al., 2021). The amount of resorufin produced is directly proportional to the number of living cells. This simple fluorometric-based assay rapidly quantifies metabolically active bacterial cells. Two controls were added to the plate to confirm the correct response from the resazurin. The positive control used evaluated media alone without bacterial culture to confirm there was no change from blue to red. The negative control evaluated the bacteria culture alone without added compound to provide a 100% growth control (red). Thus, resazurin sodium salt (Sigma R7017) was added to pleuromutilin or pleuromutilin-TPP+ prodrug treated bacterial samples at a final concentration of 0.02% and incubated for 8 hours at 37° C. Changes in fluorescence were measured on the Biotek Synergy 2 plate reader after an 8-hour incubation at 37° C. using an excitation filter range of 530-570 nm and an emission filter range of 590-620 nm. An increase in fluorescence intensity corresponded to bacterial growth and was quantified by comparison with untreated bacterial control samples. The ratio of (TThreshold (untreated)/TThreshold (prodrug-treated)) (where T=time) was used to quantify the change in bacterial growth. To minimize inter-experimental variations, TThreshold values were corrected by subtracting untreated control cultures to reach minimum detectable fluorescence. At the end of the experiment, wells were visualized for changes in color from blue (inviable bacteria) to red (viable bacteria) and a picture was taken.

[3] = tested on: Proteus mirabilis; test: Antibacterial in vitro activity (MIC); format: cell-based
Method: (§2) These compounds were tested in an E. coli and Klebsiella strain to determine the change in OD600 as a function of concentration (FIG. 5, E. coli; FIG. 6, Klebsiella). The antibacterial activity of the compounds was further analyzed and activity was determine a variety of different bacterial strains.

[4] = tested on: Citrobacter freundii; test: Antibacterial in vitro activity (MIC); format: cell-based
Method: as §2

[5] = tested on: Salmonella typhimurium; test: Antibacterial in vitro activity (MIC); format: cell-based; settings: Salmonella enterica, ATCC 13311 / TYPHIMURIUM; isolate D0109, ATCC13311
Method: as §2

[6] = tested on: Enterobacter cloacae; test: Antibacterial in vitro activity (MIC); format: cell-based
Method: as §2

[7] = tested on: Escherichia coli; test: Antibacterial in vitro activity (MIC); format: cell-based
Method: as §2

[8] = tested on: Haemophilus influenzae; test: Antibacterial in vitro activity (MIC); format: cell-based
Method: as §2

[9] = tested on: Enterococcus faecium; test: Antibacterial in vitro activity (MIC); format: cell-based; settings: isolate D0459, Clinical isolate
Method: as §2

[10] = tested on: Streptococcus pyogenes; test: Antibacterial in vitro activity (MIC); format: cell-based; settings: isolate B0780, Clinical isolate
Method: as §2

[11] = tested on: Streptococcus pneumoniae; test: Antibacterial in vitro activity (MIC); format: cell-based
Method: as §2

[12] = tested on: Pseudomonas aeruginosa; test: Antibacterial in vitro activity (MIC); format: cell-based
Method: as §2

[13] = tested on: Streptococcus agalactiae; test: Antibacterial in vitro activity (MIC); format: cell-based; settings: isolate B0790, Clinical isolate
Method: as §2

[14] = tested on: Staphylococcus aureus; test: Antibacterial in vitro activity (MIC); format: cell-based
Method: as §2

[15] = tested on: Klebsiella pneumoniae; test: Antibacterial in vitro activity (MIC); format: cell-based
Method: as §2

[16] = tested on: Acinetobacter baumannii; test: Antibacterial in vitro activity (MIC); format: cell-based
Method: as §2

[17] = tested on: clinical isolates of Staphylococcus aureus (NR-49120, NR-46413); test: Resazurin blue (alamarBlue) bacterial cell viability assay, gram-positive model; format: cell-based; settings: clinical strains of Staphylococcus aureus
Method: as §1
A resazurin blue assay (alamarBlue®) (Toté et al., 2009; Costa et al., 2021; Wannigama et al., 2019; Travnickova et al., 2019) was used to evaluate bacterial cell viability. Resazurin (7-hydroxy-10-oxidophenoxazin-10-ium-3-one, sodium) is a blue fluorogenic dye used as a redox indicator in cell viability and proliferation assays for bacteria, yeast, or mammalian cells. […] This simple fluorometric-based assay rapidly quantifies metabolically active bacterial cells. […] The positive control used evaluated media alone without bacterial culture to confirm there was no change from blue to red. The negative control evaluated the bacteria culture alone without added compound to provide a 100% growth control (red). […] Changes in fluorescence were measured on the Biotek Synergy 2 plate reader after an 8-hour incubation at 37° C. using an excitation filter range of 530-570 nm and an emission filter range of 590-620 nm. An increase in fluorescence intensity corresponded to bacterial growth and was quantified by comparison with untreated bacterial control samples. The ratio of (TThreshold (untreated)/TThreshold (prodrug-treated)) (where T=time) was used to quantify the change in bacterial growth. To minimize inter-experimental variations, TThreshold values were corrected by subtracting untreated control cultures to reach minimum detectable fluorescence. […]

[18] = tested on: Acinetobacter baumannii; settings: McCarthy, 2021; cited from earlier work
[19] = tested on: E. faecalis; settings: McCarthy, 2021; cited from earlier work
[20] = tested on: Pseudomonas aeruginosa; settings: McCarthy, 2021; cited from earlier work
[21] = Table 1, TPP+ linkers, MRC5 cells, 72-hour incubation
[22] = Table 2, cytotoxicity in MRC5 fibroblast cells

O=C(OCCOCCO)c1ccc([P+](c2ccccc2)(c2ccccc2)c2ccccc2)cc1 [AP-8-99-2]
IC50 [1, 21]: > 90 µM

O=C(O)CCCCC[P+](c1ccccc1)(c1ccccc1)c1ccccc1 [AP-3-195]
IC50 [1, 21]: > 90 µM

O=C(O)CC[P+](c1ccccc1)(c1ccccc1)c1ccccc1 [AP-4-8]
IC50 [1, 21]: > 90 µM

O=C(O)c1ccc([P+](c2ccccc2)(c2ccccc2)c2ccccc2)cc1 [AP-8-99-1]
IC50 [1, 21]: > 90 µM

OCCCCCC[P+](c1ccccc1)(c1ccccc1)c1ccccc1 [AP-5-531]
IC50 [1, 21]: > 90 µM

C=C[C@]1(C)C[C@@H](OC(=O)COC(=O)c2ccc(C[P+](c3ccccc3)(c3ccccc3)c3ccccc3)cc2)[C@]2(C)CC[C@@H](C)[C@@]3(CCC(=O)[C@@H]23)[C@@H](C)[C@@H]1O [AP-8-159B]
cytotoxicity potency [2]: 1.65 µg/mL | IC50 [1, 22]: 4.67 µM | cytotoxicity ([1]; normal MRC5 fibroblast cell lines): weak cytoxcity | MIC ([3]; Proteus mirabilis, isolate D1301, Clinical isolate, read-out: MIC): 32 µg/mL | MIC ([3]; isolate D1300, Clinical isolate): 32 µg/mL | MIC ([4]; isolate B0271, Clinical isolate): 64 µg/mL | MIC ([4]; isolate B0286, AKH Vienna): 64 µg/mL | MIC [5]: 16 µg/mL | MIC ([6]; isolate D1089, Clinical isolate): > 128 µg/mL | MIC ([6]; isolate D1090, Clinical isolate): > 128 µg/mL | MIC ([7]; ATCC25922, isolate B0001, ATCC 25922, read-out: MIC): 8 µg/mL | MIC ([7]; isolate B0158, AcrAB-TolC efflux pump WT, read-out: MIC): 32 µg/mL | MIC ([7]; isolate B0159, Efflux pump deficient (ΔtolC)): 0.5 µg/mL | MIC ([7]; isolate B0429, Efflux pump deficient (ΔacrAB)): 1 µg/mL | MIC ([7]; isolate B1098, Clinical isolate, read-out: MIC): 16 µg/mL | MIC ([7]; isolate D0120, Clinical isolate, read-out: MIC): 16 µg/mL | MIC ([8]; ATCC49247, isolate B0035, ATCC 49247): 1 µg/mL | MIC ([8]; isolate B0126, Clinical isolate): 0.25 µg/mL | MIC [9]: 0.5 µg/mL | MIC [10]: 0.12 µg/mL | MIC ([11]; isolate B0078, Clinical isolate): 0.5 µg/mL | MIC ([11]; isolate B0415, Clinical isolate): ≤ 0.12 µg/mL | MIC ([12]; ATCC27853, isolate B0015, ATCC 27853): 8 µg/mL | MIC ([12]; ATCC29511, isolate B0016, ATCC 29511): 16 µg/mL | MIC ([12]; isolate B0367, Clinical isolate): 4 µg/mL | MIC [13]: 0.06 µg/mL | MIC ([14]; ATCC49951, isolate B0009, ATCC 49951): ≤ 0.12 µg/mL | MIC ([14]; isolate B0029, Clinical isolate): 0.5 µg/mL | MIC ([14]; isolate B1325, Clinical isolates): 0.5 µg/mL | MIC ([15]; ATCC11228, isolate B0032, ATCC 11228): > 128 µg/mL | MIC ([15]; ATCC29519, isolate D0033, ATCC 29519): 128 µg/mL | MIC ([15]; ATCC43816, isolate B0305, ATCC 43816): 128 µg/mL | MIC ([16]; ATCC15473, isolate B0473, ATCC 15473): 64 µg/mL | MIC ([16]; isolate B1062, Clinical isolate): 128 µg/mL | cytotoxic effect [17]: potent cytotoxic agents

CC(C)C[C@H](NC(=O)[C@H](Cc1ccccc1)NC(=O)c1cnccn1)B(O)O [PS-341, bortezomib]
IC50 [1, 21]: 0.007 µM | IC50 [1, 22]: 0.0003 µM

C=C[C@]1(C)C[C@@H](OC(=O)CS[C@@H]2CC[C@@H](N)C[C@H]2O)[C@]2(C)[C@H](C)CC[C@]3(CCC(=O)[C@H]32)[C@@H](C)[C@@H]1O [Lefamulin]
antibacterial activity [18]: lacks activity | antibacterial activity [19]: lacks activity | antibacterial activity [20]: lacks activity
